6 compounds from ChEMBL document CHEMBL5724914, “Linking interpersonal differences in gut microbiota composition and drug biotransformation activity” (2024) can be followed below.

The nature of data set [1]: The drug is tested on Z-024 corresponding to pig gut metagenome with ENA study accession number: PRJEB37062 and ENA sample accession number: ERS12561823 for biotransformation under anaerobic condition. The drug concentrations were measured over 9 timepoints collected between 0 and 24 hours of incubation by liquid-chromatography-coupled mass spectrometry (LC–MS). The conditions noted are these: 2 µM.

The nature of data set [2]: The drug is tested on Z-017 corresponding to mouse gut metagenome with ENA study accession number: PRJEB37062 and ENA sample accession number: ERS12561816 for biotransformation under anaerobic condition. The drug concentrations were measured over 9 timepoints collected between 0 and 24 hours of incubation by liquid-chromatography-coupled mass spectrometry (LC–MS). The settings on record: 2 µM.

The nature of data set [3]: The drug is tested on Z-010 corresponding to metagenome with ENA study accession number: PRJEB37062 and ENA sample accession number: ERS12561810 for biotransformation under anaerobic condition. The drug concentrations were measured over 9 timepoints collected between 0 and 24 hours of incubation by liquid-chromatography-coupled mass spectrometry (LC–MS). The settings on record: 2 µM.

The nature of data set [4]: The drug is tested on Z-009 corresponding to pig gut metagenome with ENA study accession number: PRJEB37062 and ENA sample accession number: ERS12561809 for biotransformation under anaerobic condition. The drug concentrations were measured over 9 timepoints collected between 0 and 24 hours of incubation by liquid-chromatography-coupled mass spectrometry (LC–MS). The settings on record: 2 µM.

The nature of data set [5]: The drug is tested on Z-001 corresponding to mouse gut metagenome with ENA study accession number: PRJEB37062 and ENA sample accession number: ERS12561801 for biotransformation under anaerobic condition. The drug concentrations were measured over 9 timepoints collected between 0 and 24 hours of incubation by liquid-chromatography-coupled mass spectrometry (LC–MS). The conditions noted are these: 2 µM.

Data set [6] is described as follows: The drug is tested on WLS-350 corresponding to human gut metagenome with ENA study accession number: PRJEB37062 and ENA sample accession number: ERS12561789 for biotransformation under anaerobic condition. The drug concentrations were measured over 9 timepoints collected between 0 and 24 hours of incubation by liquid-chromatography-coupled mass spectrometry (LC–MS). The settings on record: 2 µM.

Data set [7] can be described thus: The drug is tested on WLS-220 corresponding to human gut metagenome with ENA study accession number: PRJEB37062 and ENA sample accession number: ERS12561769 for biotransformation under anaerobic condition. The drug concentrations were measured over 9 timepoints collected between 0 and 24 hours of incubation by liquid-chromatography-coupled mass spectrometry (LC–MS). The settings on record: 2 µM.

The nature of data set [8]: The drug is tested on WLS-086 corresponding to human gut metagenome with ENA study accession number: PRJEB37062 and ENA sample accession number: ERS12561752 for biotransformation under anaerobic condition. The drug concentrations were measured over 9 timepoints collected between 0 and 24 hours of incubation by liquid-chromatography-coupled mass spectrometry (LC–MS). The conditions noted are these: 2 µM.

Data set [9] is described as follows: The drug is tested on WLS-073 corresponding to human gut metagenome with ENA study accession number: PRJEB37062 and ENA sample accession number: ERS12561749 for biotransformation under anaerobic condition. The drug concentrations were measured over 9 timepoints collected between 0 and 24 hours of incubation by liquid-chromatography-coupled mass spectrometry (LC–MS). The settings on record: 2 µM.

The nature of data set [10]: The drug is tested on WLS-052 corresponding to human gut metagenome with ENA study accession number: PRJEB37062 and ENA sample accession number: ERS12561747 for biotransformation under anaerobic condition. The drug concentrations were measured over 9 timepoints collected between 0 and 24 hours of incubation by liquid-chromatography-coupled mass spectrometry (LC–MS). The conditions noted are these: 2 µM.

The nature of data set [11]: The drug is tested on WLS-038 corresponding to human gut metagenome with ENA study accession number: PRJEB37062 and ENA sample accession number: ERS12561745 for biotransformation under anaerobic condition. The drug concentrations were measured over 9 timepoints collected between 0 and 24 hours of incubation by liquid-chromatography-coupled mass spectrometry (LC–MS). The conditions noted are these: 2 µM.

For data set [12] the following is noted: human gut metagenome, 24 h, 2 µM.
For data set [13] the following is noted: human gut metagenome, 24 h, 2 µM. This is another data set of the same source.
The conditions of data set [14]: human gut metagenome, 24 h, 2 µM. This is another data set of the same source.
For data set [15] the following is noted: human gut metagenome, 24 h, 2 µM. This is another data set of the same source.
For data set [16] the following is noted: human gut metagenome, 24 h, 2 µM. The source holds these as a separate data set.
For data set [17] the following is noted: human gut metagenome, 24 h, 2 µM. This is another data set of the same source.
The conditions of data set [18]: human gut metagenome, 24 h, 2 µM. The source holds these as a separate data set.
For data set [19] the following is noted: human gut metagenome, 24 h, 2 µM. This is another data set of the same source.
The conditions of data set [20]: human gut metagenome, 24 h, 2 µM. The source holds these as a separate data set.

Structures are written as SMILES.
Also: call rule not given here.

For `Nc1c2c(nc3ccccc13)CCCC2` [TACRINE], the “Bacterial Biotransformation” value in data set [1], in data set [2], in data set [3], in data set [4], in data set [5] and in [6] was “Compound NOT metabolized” in each case. In addition, the “Bacterial Biotransformation” value in data set [7] is listed as “Compound NOT metabolized”; in data set [8], “Compound metabolized”; in data set [9], “Compound NOT metabolized”; in data set [10] it was “Compound NOT metabolized”; in [11], “Compound NOT metabolized”; in [12], “Compound NOT metabolized”. Besides, the “Bacterial Biotransformation” value in data set [13] was “Compound NOT metabolized”; in data set [14], “Compound NOT metabolized”; in data set [15], “Compound NOT metabolized”; in data set [16] it was “Compound NOT metabolized”; in data set [17], “Compound NOT metabolized”; in data set [18] it was “Compound metabolized”. Also, the results for the “Bacterial Biotransformation” value in data set [19] and in data set [20] were “Compound metabolized” and “Compound NOT metabolized”, respectively.

For the compound `Cc1ccc(S(=O)(=O)NC(=O)NN2CCCCCC2)cc1` [TOLAZAMIDE], the “Bacterial Biotransformation” value in data set [1] was “Compound metabolized”; in [2], “Compound NOT metabolized”; in data set [3], “Compound metabolized”; in data set [4], “Compound metabolized”; in [5], “Compound metabolized”; in [6], “Compound NOT metabolized”. Moreover, the “Bacterial Biotransformation” value in data set [7], in data set [8], in data set [9], in data set [10], in [11] and in data set [12] was “Compound metabolized” in each case. Besides, the “Bacterial Biotransformation” value in [13] is given as “Compound NOT metabolized”; in [14], “Compound metabolized”; in [15], “Compound metabolized”; in data set [16], “Compound metabolized”; in data set [17], “Compound metabolized”; in [18], “Compound metabolized”. Moreover, the “Bacterial Biotransformation” value in [19] and in [20] was “Compound metabolized” each time.

For the compound `CCOC(=O)[C@H](CCc1ccccc1)N[C@@H](C)C(=O)N1[C@H](C(=O)O)C[C@H]2CCCC[C@@H]21` [TRANDOLAPRIL], the “Bacterial Biotransformation” value is “Compound metabolized” in data set [1]; “Compound NOT metabolized” in data set [2]; “Compound metabolized” in data set [3]; “Compound metabolized” in [4]; “Compound NOT metabolized” in data set [5]; “Compound NOT metabolized” in [6]. The “Bacterial Biotransformation” value was “Compound metabolized” in [7]; “Compound metabolized” in data set [8]; “Compound metabolized” in data set [9]; “Compound metabolized” in [10]; “Compound metabolized” in [11]; “Compound NOT metabolized” in data set [12]. For the same compound, the “Bacterial Biotransformation” value in [13] is reported as “Compound NOT metabolized”; in data set [14], “Compound metabolized”; in data set [15], “Compound metabolized”; in [16], “Compound metabolized”; in data set [17] it was “Compound metabolized”; in data set [18], “Compound metabolized”. The “Bacterial Biotransformation” value in data set [19] and in data set [20] was “Compound metabolized” each time.

Turning to `CC(CN(C)C)CN1c2ccccc2CCc2ccccc21.O=C(O)/C=C\C(=O)O` (stereo not given) [TRIMIPRAMINE MALEATE], the “Bacterial Biotransformation” value in data set [1] is listed as “Compound metabolized”; in data set [2], “Compound NOT metabolized”; in [3], “Compound NOT metabolized”; in data set [4], “Compound NOT metabolized”; in data set [5] it was “Compound NOT metabolized”; in data set [6] it was “Compound NOT metabolized”. Moreover, the “Bacterial Biotransformation” value in [7] is on record as “Compound metabolized”; in data set [8], “Compound metabolized”; in [9] it was “Compound NOT metabolized”; in data set [10], “Compound NOT metabolized”; in [11], “Compound NOT metabolized”; in data set [12], “Compound NOT metabolized”. In addition, the “Bacterial Biotransformation” value is “Compound NOT metabolized” in [13]; “Compound NOT metabolized” in data set [14]; “Compound NOT metabolized” in [15]; “Compound NOT metabolized” in data set [16]; “Compound metabolized” in data set [17]; “Compound metabolized” in data set [18]. In addition, the figures for the “Bacterial Biotransformation” value in [19] and in [20] were “Compound NOT metabolized” and “Compound metabolized”, respectively.

Turning to `CC(=O)CC(c1ccccc1)c1c(O)c2ccccc2oc1=O` (stereo not given) [WARFARIN], the “Bacterial Biotransformation” value in data set [1] is recorded as “Compound metabolized”; in data set [2], “Compound NOT metabolized”; in data set [3], “Compound metabolized”; in data set [4] it was “Compound metabolized”; in data set [5], “Compound NOT metabolized”; in data set [6] it was “Compound metabolized”. For the same compound, the “Bacterial Biotransformation” value in data set [7] is given as “Compound metabolized”; in data set [8], “Compound metabolized”; in data set [9] it was “Compound NOT metabolized”; in data set [10], “Compound metabolized”; in data set [11], “Compound NOT metabolized”; in data set [12], “Compound metabolized”. Also, the “Bacterial Biotransformation” value in data set [13], in data set [14], in data set [15], in data set [16], in data set [17] and in data set [18] was “Compound metabolized” in each case. Besides, the “Bacterial Biotransformation” value in data set [19] and in data set [20] was “Compound metabolized” in each case.

Take `Cc1ccc(-c2nc3ccc(C)cn3c2CC(=O)N(C)C)cc1` [ZOLPIDEM]: the “Bacterial Biotransformation” value was “Compound NOT metabolized” in [1]; “Compound NOT metabolized” in data set [2]; “Compound metabolized” in data set [3]; “Compound metabolized” in [4]; “Compound NOT metabolized” in [5]; “Compound NOT metabolized” in data set [6]. Also, the “Bacterial Biotransformation” value in data set [7] is “Compound metabolized”; in [8] it was “Compound metabolized”; in data set [9] it was “Compound NOT metabolized”; in data set [10], “Compound NOT metabolized”; in data set [11] it was “Compound NOT metabolized”; in data set [12] it was “Compound NOT metabolized”. For the same compound, the “Bacterial Biotransformation” value was “Compound metabolized” in [13]; “Compound NOT metabolized” in data set [14]; “Compound NOT metabolized” in [15]; “Compound NOT metabolized” in [16]; “Compound metabolized” in data set [17]; “Compound metabolized” in data set [18]. Further, the “Bacterial Biotransformation” value was “Compound metabolized” in data set [19] and “Compound NOT metabolized” in [20].
